Reference: patent US7795261B2, “Substituted 1-piperidin-4-yl-4-pyrrolidin-3-yl-piperazine derivatives and their use as neurokinin antagonists” (Janssen Pharmaceutica NV, priority 2002, dated 2010)

Experiments:
Assay type in all cases: cell-based
NK1 = NK1 (Homo sapiens, UniProt P25103); assay: Signal transduction (ST), intracellular Ca++ (FLIPR), NK1 antagonistic activity; conditions: read-out: pIC50 NK1 (converted)
In short: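 Confluent cells loaded with 2 μM Fluo3 (1 h, 37 °C, probenecid), preincubated 20 min at RT with antagonist concentration range, then agonist added. Peak Ca++ transient read by FLIPR in Krebs buffer pH 7.4; IC50 by non-linear regression.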

NK2 = molecular target: T1, NK2 (Homo sapiens, UniProt P21452); assay: Signal transduction (ST), intracellular Ca++ (FLIPR), NK2; conditions: read-out: pIC50 NK2 (converted)
T1 sequence (P21452 1-398): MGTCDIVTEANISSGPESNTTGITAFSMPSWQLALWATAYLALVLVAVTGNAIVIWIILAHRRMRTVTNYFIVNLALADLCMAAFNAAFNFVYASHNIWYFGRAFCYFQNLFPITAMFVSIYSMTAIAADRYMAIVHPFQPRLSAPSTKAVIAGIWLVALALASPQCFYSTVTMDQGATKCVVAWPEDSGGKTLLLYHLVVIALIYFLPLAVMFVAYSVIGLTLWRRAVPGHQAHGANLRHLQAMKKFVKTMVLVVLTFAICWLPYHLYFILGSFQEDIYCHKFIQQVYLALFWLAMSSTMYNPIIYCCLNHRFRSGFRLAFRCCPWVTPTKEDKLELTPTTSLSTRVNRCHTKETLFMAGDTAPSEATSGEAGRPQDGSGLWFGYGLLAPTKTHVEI

NK3 = molecular target: T2, NK3 (Homo sapiens, UniProt P29371); assay: Signal transduction (ST), intracellular Ca++ (FLIPR), NK3; conditions: read-out: pIC50 NK3 (converted)
T2 sequence (P29371 1-465): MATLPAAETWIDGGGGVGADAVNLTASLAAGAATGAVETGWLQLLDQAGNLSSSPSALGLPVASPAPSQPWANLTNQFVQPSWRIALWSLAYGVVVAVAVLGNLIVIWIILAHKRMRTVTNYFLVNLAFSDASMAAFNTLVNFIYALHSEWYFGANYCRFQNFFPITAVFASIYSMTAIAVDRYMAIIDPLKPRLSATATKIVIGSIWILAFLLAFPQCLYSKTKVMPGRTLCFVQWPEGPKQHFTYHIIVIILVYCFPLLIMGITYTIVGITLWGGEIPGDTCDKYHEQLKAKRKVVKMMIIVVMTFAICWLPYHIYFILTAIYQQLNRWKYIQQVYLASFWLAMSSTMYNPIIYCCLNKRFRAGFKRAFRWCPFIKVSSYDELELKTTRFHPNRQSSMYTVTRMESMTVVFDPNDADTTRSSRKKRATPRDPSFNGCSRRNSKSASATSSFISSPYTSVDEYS

Sequence of NK1 (P25103 whole entry): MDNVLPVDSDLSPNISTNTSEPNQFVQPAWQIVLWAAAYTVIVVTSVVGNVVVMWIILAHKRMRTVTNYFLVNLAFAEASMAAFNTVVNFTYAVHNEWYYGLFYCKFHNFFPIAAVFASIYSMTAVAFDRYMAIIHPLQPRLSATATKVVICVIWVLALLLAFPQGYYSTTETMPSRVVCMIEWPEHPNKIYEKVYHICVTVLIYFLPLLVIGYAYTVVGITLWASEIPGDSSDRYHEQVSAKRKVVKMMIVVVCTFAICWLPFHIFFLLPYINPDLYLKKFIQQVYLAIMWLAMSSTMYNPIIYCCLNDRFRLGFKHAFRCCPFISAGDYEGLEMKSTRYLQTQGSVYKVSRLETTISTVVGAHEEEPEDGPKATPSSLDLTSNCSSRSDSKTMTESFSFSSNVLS

| SMILES | IC50 (NK1) [nM] | IC50 (NK2) [nM] | IC50 (NK3) [nM] |
| --- | --- | --- | --- |
| O=C(c1cc(C(F)(F)F)cc(C(F)(F)F)c1)N1CC[C@H](N2CCN(C3CCN(S(=O)(=O)c4ccc(O)cc4)C3)CC2)C[C@H]1Cc1ccccc1 (stereo partly drawn) [Compound 303] | 6.31 | 631 | 3160 |
| O=C(c1cccs1)N1CCC(N2CCN(C3CCN(C(=O)c4cc(C(F)(F)F)cc(C(F)(F)F)c4)C(Cc4ccc(Cl)c(Cl)c4)C3)CC2)C1 (stereo not drawn) [Compound 175] | 25.1 | 1000 | 398 |
| O=C(c1ccccc1Cl)N1CCC(N2CCN(C3CCN(C(=O)c4cc(C(F)(F)F)cc(C(F)(F)F)c4)C(Cc4ccc(F)cc4)C3)CC2)C1 (stereo not drawn) [Compound 279] | 15.8 | 3980 | 2000 |
| O=C(c1c(Cl)cccc1Cl)N1CCC(N2CCN(C3CCN(C(=O)c4cc(C(F)(F)F)cc(C(F)(F)F)c4)C(Cc4ccc(F)c(F)c4)C3)CC2)C1 (single isomer, unassigned) [Compound 239] | 10 | 1000 | 251 |
| O=C(C1CCOC1)N1CCC(N2CCN(C3CCN(C(=O)c4cc(C(F)(F)F)cc(C(F)(F)F)c4)C(Cc4ccc(F)c(F)c4)C3)CC2)C1 (single isomer, unassigned) [Compound 281] | 5.01 | 3980 | 3160 |
| CN(C(=O)OC(C)(C)C)C(C)(C)C(=O)N1CCC(N2CCN(C3CCN(C(=O)c4cc(C(F)(F)F)cc(C(F)(F)F)c4)C(Cc4ccccc4)C3)CC2)C1 (stereo not drawn) [Compound 304] | 10 | 1580 | 158 |
| O=C(c1ccoc1)N1CC[C@@H](N2CCN([C@H]3CCN(C(=O)c4cc(C(F)(F)F)cc(C(F)(F)F)c4)[C@H](Cc4ccc(Cl)c(Cl)c4)C3)CC2)C1 [Compound 288] | 7.94 | 1580 | 794 |
| O=C(c1cc(C(F)(F)F)cc(C(F)(F)F)c1)N1CC[C@H](N2CCN(C3CCN(S(=O)(=O)c4ccccc4)C3)CC2)C[C@H]1Cc1ccccc1 (stereo partly drawn) [Compound 75] | 25.1 | 1000 | 398 |
| O=C(c1ccsc1)N1CC[C@@H](N2CCN([C@H]3CCN(C(=O)c4cc(C(F)(F)F)cc(C(F)(F)F)c4)[C@H](Cc4ccc(Cl)c(Cl)c4)C3)CC2)C1 [Compound 287] | 12.6 | 1260 | 251 |
| O=C(c1cnccn1)N1CCC(N2CCN([C@H]3CCN(C(=O)c4cc(C(F)(F)F)cc(C(F)(F)F)c4)[C@H](Cc4ccccc4)C3)CC2)C1 (stereo partly drawn) [Compound 30] | 31.6 | 3980 | 1000 |
| O=C(c1ccsc1)N1CCC(N2CCN(C3CCN(C(=O)c4cc(C(F)(F)F)cc(C(F)(F)F)c4)C(Cc4ccc(F)c(F)c4)C3)CC2)C1 (single isomer, unassigned) [Compound 238] | 6.31 | 1260 | 158 |
| O=C(c1ccsc1)N1CCC(N2CCN(C3CCN(C(=O)c4cc(C(F)(F)F)cc(C(F)(F)F)c4)C(Cc4ccccc4)C3)CC2)C1 (single isomer, unassigned) [Compound 40] | 7.94 | 2510 | 126 |
| O=C(c1ccccc1Cl)N1CCC(N2CCN(C3CCN(C(=O)c4cc(C(F)(F)F)cc(C(F)(F)F)c4)C(Cc4ccc(F)c(F)c4)C3)CC2)C1 (single isomer, unassigned) [Compound 211] | 6.31 | 1000 | 200 |
| O=C(c1cccs1)N1CC[C@@H](N2CCN([C@H]3CCN(C(=O)c4cc(C(F)(F)F)cc(C(F)(F)F)c4)[C@H](Cc4ccc(Cl)c(Cl)c4)C3)CC2)C1 [Compound 264] | 12.6 | 1580 | 200 |
| O=C(C1CCCCC1)N1CCC(N2CCN([C@H]3CCN(C(=O)c4cc(C(F)(F)F)cc(C(F)(F)F)c4)[C@H](Cc4ccccc4)C3)CC2)C1 (stereo partly drawn) [Compound 178] | 10 | 2000 | 251 |
| CC(C)(C)OC(=O)N1CC[C@@H](N2CCN([C@H]3CCN(C(=O)c4cc(C(F)(F)F)cc(C(F)(F)F)c4)[C@H](Cc4ccc(Cl)c(Cl)c4)C3)CC2)C1 [Compound 261] | 31.6 | 1260 | 501 |
| O=C(c1ccccc1Cl)N1CCC(N2CCN(C3CCN(C(=O)c4cc(C(F)(F)F)cc(C(F)(F)F)c4)C(Cc4ccccc4)C3)CC2)C1 (single isomer, unassigned) [Compound 159] | 20 | 6310 | 631 |

The next lines start with the values.

| IC50 (NK1) [nM] | IC50 (NK2) [nM] | IC50 (NK3) [nM] | SMILES |
| --- | --- | --- | --- |
| 6.31 | 5010 | 79.4 | CC1(C)OC(=O)C[C@H]1C(=O)N1CCC(N2CCN([C@H]3CCN(C(=O)c4cc(C(F)(F)F)cc(C(F)(F)F)c4)[C@H](Cc4ccccc4)C3)CC2)C1 (stereo partly drawn) [Compound 404] |
| 10 | 3160 | 794 | O=C(C1CCCCC1)N1CCC(N2CCN(C3CCN(C(=O)c4cc(C(F)(F)F)cc(C(F)(F)F)c4)C(Cc4ccc(F)c(F)c4)C3)CC2)C1 (single isomer, unassigned) [Compound 357] |
| 251 | 3980 | 2510 | O=C(c1cc(C(F)(F)F)cc(C(F)(F)F)c1)N1CCC(N2CCN(C3CCN(Cc4ccccc4)C3)CC2)CC1Cc1cc(Cl)cc(Cl)c1 (stereo not drawn) [Compound 320] |
| 10 | 398 | 631 | O=C(c1ccco1)N1CC[C@H](N2CCN([C@H]3CCN(C(=O)c4cc(C(F)(F)F)cc(C(F)(F)F)c4)[C@H](Cc4ccc(Cl)c(Cl)c4)C3)CC2)C1 [Compound 317] |
| 5.01 | 126 | 398 | O=C(c1cc(C(F)(F)F)cc(C(F)(F)F)c1)N1CCC(N2CCN(C3CCN(S(=O)(=O)c4cc(CCO)cs4)C3)CC2)CC1Cc1ccccc1 (stereo not drawn) [Compound 342] |
| 10 | 316 | 2000 | O=C(c1cc(C(F)(F)F)cc(C(F)(F)F)c1)N1CC[C@H](N2CCN(C3CCN(S(=O)(=O)c4cccc(O)c4)C3)CC2)C[C@H]1Cc1ccccc1 (stereo partly drawn) [Compound 348] |
| 7.94 | 3980 | 631 | O=C(c1cccs1)N1CC[C@H](N2CCN([C@H]3CCN(C(=O)c4cc(C(F)(F)F)cc(C(F)(F)F)c4)[C@H](Cc4ccccc4)C3)CC2)C1 [Compound 322] |
| 15.8 | 5010 | 6310 | COc1ccc(NC(=NC#N)N2CCC(N3CCN([C@H]4CCN(C(=O)c5cc(C(F)(F)F)cc(C(F)(F)F)c5)[C@H](Cc5ccccc5)C4)CC3)C2)cc1 (stereo partly drawn) [Compound 355] |
| 39.8 | 3160 | 1260 | O=C(c1ccsc1)N1CCC(N2CCN(C3CCN(C(=O)c4cc(C(F)(F)F)cc(C(F)(F)F)c4)C(Cc4cc(F)cc(F)c4)C3)CC2)C1 (stereo not drawn) [Compound 337] |
| 6.31 | 2000 | 100 | Cn1cccc1C(=O)N1CCC(N2CCN(C3CCN(C(=O)c4cc(C(F)(F)F)cc(C(F)(F)F)c4)C(Cc4ccc(F)c(F)c4)C3)CC2)C1 (single isomer, unassigned) [Compound 366] |
| 15.8 | 7940 | 5010 | N#CN=C(N1CCOCC1)N1CCC(N2CCN([C@H]3CCN(C(=O)c4cc(C(F)(F)F)cc(C(F)(F)F)c4)[C@H](Cc4ccccc4)C3)CC2)C1 (stereo partly drawn) [Compound 371] |
| 31.6 | 2510 | 6310 | O=C(c1cc(C(F)(F)F)cc(C(F)(F)F)c1)N1CCC(N2CCN(C3CCN(C(CO)c4ccsc4)C3)CC2)CC1Cc1ccccc1 (stereo not drawn) [Compound 349] |
